Laboratory results taken from the NIST ThermoML archive (doi:10.1021/je060203o).

Details: Liquid; for speed of sound: Pulse-echo method; for mass density: Vibrating tube method

CCCCCn1cc[n+](C)c1.O=S(=O)([N-]S(=O)(=O)C(F)(F)F)C(F)(F)F
Details | mass density [kg/m3] | speed of sound [m/s]
288.15 K, 500 kPa | – | 1255.5
288.15 K, 3500 kPa | – | 1266
288.15 K, 7000 kPa | – | 1278.1
288.15 K, 10000 kPa | – | 1288.3
288.15 K, 13500 kPa | – | 1299.9
288.15 K, 16990 kPa | – | 1311.2
288.15 K, 20000 kPa | – | 1320.7
288.15 K, 30000 kPa | – | 1351.7
288.15 K, 40000 kPa | – | 1380.9
288.15 K, 50000 kPa | – | 1409
288.15 K, 60000 kPa | – | 1435.6
288.15 K, 70000 kPa | – | 1461.2
288.15 K, 80000 kPa | – | 1486
288.15 K, 90000 kPa | – | 1509.9
288.15 K, 100000 kPa | – | 1533
288.15 K, 112500 kPa | – | 1560.9
288.15 K, 125000 kPa | – | 1587.9
288.15 K, 137510 kPa | – | 1613.5
288.15 K, 150000 kPa | – | 1637.8
298.15 K, 100 kPa | 1404.45 | –
298.15 K, 500 kPa | – | 1232.1
298.15 K, 1830 kPa | 1405.67 | –
298.15 K, 3500 kPa | – | 1242.7
298.15 K, 7000 kPa | – | 1255
298.15 K, 10000 kPa | – | 1265.5
298.15 K, 10020 kPa | 1411.85 | –
298.15 K, 13500 kPa | – | 1277.3
298.15 K, 14980 kPa | 1415.45 | –
298.15 K, 16990 kPa | – | 1288.9
298.15 K, 19750 kPa | 1418.8 | –
298.15 K, 20000 kPa | – | 1298.6
298.15 K, 25860 kPa | 1422.94 | –
298.15 K, 30000 kPa | – | 1330.5
298.15 K, 31480 kPa | 1426.64 | –
298.15 K, 37770 kPa | 1430.64 | –
298.15 K, 40000 kPa | – | 1360.4
298.15 K, 44170 kPa | 1434.54 | –
298.15 K, 50000 kPa | – | 1388.9
298.15 K, 50750 kPa | 1438.46 | –
298.15 K, 59590 kPa | 1443.56 | –
298.15 K, 60000 kPa | – | 1415.9
298.15 K, 70000 kPa | – | 1441.9
298.15 K, 80000 kPa | – | 1467
298.15 K, 90000 kPa | – | 1491.1
298.15 K, 100000 kPa | – | 1514.5
298.15 K, 112500 kPa | – | 1542.6
298.15 K, 125000 kPa | – | 1569.7
298.15 K, 137510 kPa | – | 1595.7
298.15 K, 150000 kPa | – | 1620.3
299.15 K, 100 kPa | 1403.5 | –
299.15 K, 1830 kPa | 1404.78 | –
299.15 K, 10020 kPa | 1410.92 | –
299.15 K, 14980 kPa | 1414.53 | –
299.15 K, 19750 kPa | 1417.87 | –
299.15 K, 25860 kPa | 1422.01 | –
299.15 K, 31480 kPa | 1425.7 | –
299.15 K, 37770 kPa | 1429.73 | –
299.15 K, 44170 kPa | 1433.68 | –
299.15 K, 50750 kPa | 1437.64 | –
299.15 K, 59590 kPa | 1442.74 | –
300.15 K, 100 kPa | 1402.62 | –
300.15 K, 1830 kPa | 1403.85 | –
300.15 K, 10020 kPa | 1410.01 | –
300.15 K, 14980 kPa | 1413.57 | –
300.15 K, 19750 kPa | 1416.91 | –
300.15 K, 25860 kPa | 1421.12 | –
300.15 K, 31480 kPa | 1424.81 | –
300.15 K, 37770 kPa | 1428.87 | –
300.15 K, 44170 kPa | 1432.84 | –
300.15 K, 50750 kPa | 1436.83 | –
300.15 K, 59590 kPa | 1441.99 | –
301.15 K, 100 kPa | 1401.81 | –
301.15 K, 1830 kPa | 1403.07 | –
301.15 K, 10020 kPa | 1409.19 | –
301.15 K, 14980 kPa | 1412.71 | –
301.15 K, 19750 kPa | 1416.05 | –
301.15 K, 25860 kPa | 1420.19 | –
301.15 K, 31480 kPa | 1423.9 | –
301.15 K, 37770 kPa | 1427.94 | –
301.15 K, 44170 kPa | 1431.88 | –
301.15 K, 50750 kPa | 1435.89 | –
301.15 K, 59590 kPa | 1441.12 | –
302.15 K, 100 kPa | 1400.89 | –
302.15 K, 1830 kPa | 1402.16 | –
302.15 K, 10020 kPa | 1408.28 | –
302.15 K, 14980 kPa | 1411.85 | –
302.15 K, 19750 kPa | 1415.2 | –
302.15 K, 25860 kPa | 1419.36 | –
302.15 K, 31480 kPa | 1423.08 | –
302.15 K, 37770 kPa | 1427.17 | –
302.15 K, 44170 kPa | 1431.17 | –
302.15 K, 50750 kPa | 1435.18 | –
302.15 K, 59590 kPa | 1440.42 | –
303.15 K, 100 kPa | 1399.89 | –
303.15 K, 1830 kPa | 1401.18 | –
303.15 K, 10020 kPa | 1407.27 | –
303.15 K, 14980 kPa | 1410.82 | –
303.15 K, 19750 kPa | 1414.3 | –
303.15 K, 25860 kPa | 1418.46 | –
303.15 K, 31480 kPa | 1422.18 | –
303.15 K, 37770 kPa | 1426.25 | –
303.15 K, 44170 kPa | 1430.26 | –
303.15 K, 50750 kPa | 1434.31 | –
303.15 K, 59590 kPa | 1439.59 | –
308.15 K, 100 kPa | 1395.34 | –
308.15 K, 500 kPa | – | 1209.4
308.15 K, 1830 kPa | 1396.59 | –
308.15 K, 3500 kPa | – | 1220.4
308.15 K, 7000 kPa | – | 1233.1
308.15 K, 10000 kPa | – | 1243.7
308.15 K, 10020 kPa | 1402.73 | –
308.15 K, 13500 kPa | – | 1255.8
308.15 K, 14980 kPa | 1406.29 | –
308.15 K, 16990 kPa | – | 1267.5
308.15 K, 19750 kPa | 1409.65 | –
308.15 K, 20000 kPa | – | 1277.5
308.15 K, 25860 kPa | 1413.83 | –
308.15 K, 30000 kPa | – | 1310
308.15 K, 31480 kPa | 1417.59 | –
308.15 K, 37770 kPa | 1421.72 | –
308.15 K, 40000 kPa | – | 1340.4
308.15 K, 44170 kPa | 1425.82 | –
308.15 K, 50000 kPa | – | 1369.1
308.15 K, 50750 kPa | 1429.95 | –
308.15 K, 59590 kPa | 1435.35 | –
308.15 K, 60000 kPa | – | 1396.7
308.15 K, 70000 kPa | – | 1423.2
308.15 K, 80000 kPa | – | 1448.6
308.15 K, 90000 kPa | – | 1473
308.15 K, 100000 kPa | – | 1496.6
308.15 K, 112500 kPa | – | 1525.2
308.15 K, 125000 kPa | – | 1552.6
308.15 K, 137510 kPa | – | 1579
308.15 K, 150000 kPa | – | 1603.7
313.15 K, 100 kPa | 1390.55 | –
313.15 K, 1830 kPa | 1391.88 | –
313.15 K, 10020 kPa | 1397.99 | –
313.15 K, 14980 kPa | 1401.57 | –
313.15 K, 19750 kPa | 1404.95 | –
